Square brackets hold non-standard residues; d marks the D form. Peptide text beside a SMILES is read from it. * marks the point of attachment. Sta = CC(C)C[C@H](N)[C@@H](O)CC(=O)O; Isovaleryl = CC(C)CC(=O)*
Key:
[1] = system: native aspartic endoproteinase (TcAP2), size exclusion purified pool #57-64; test: Inhibitor sensitivity of the native purified aspartic endoproteinase (bovine hemoglobin hydrolysis, OPA read-out); assay type: biochemical, Theobroma cacao; conditions: for Remaining Activity %: pH 3, 10 mg/ml bovine hemoglobin, pepstatin A 0.002 mM, 1,10 phenanthroline 2.0 mM, E-64 0.01 mM, DCI 0.1 mM, two replicates
Protocol: (§1) Aspartic endoproteinase activity was assayed at 42° C. in a 900 μl reaction medium containing 0.2M sodium citrate buffer pH3.0, 10 mg/ml bovine haemoglobin and 150 μl yeast culture supernatant. To stop the reaction aliquots (80 μl) were added to an equal volume of TCA 8% and the precipitated protein removed by centrifugation at 13000 g. 20 μl supernatant were mixed to 250 μl O-phthaldialdehyde (OPA) reagent (50 mM sodium tetraborate, 1% SDS, 5.96 mM OPA (dissolved in 1 ml methanol) and 1.43 mM β-mercaptoethanol. Activity was then determined measuring OD at 340 nm and expressed in pmole leucine produced per mg protein. For this, we use the following linear equation (OD340 nm=0.0156 pmoles+0.0088), which was determined using a standard curve with L-leucine (0 to 80 pmoles). Protein concentration was determined by Bradford assay (Biorad).
The inhibitor sensitivity of the native aspartic endoproteinase was determined in 300 μl reactions containing 200 mM sodium citrate, pH 3, 10 mg/ml bovine hemoglobin, and 5 μl of size exclusion purified pool #57-64 (2.4 μg protein/μl). The inhibitors were added to give a final concentration of 2 μM pepstatin, 2 mM 1,10 phenanthroline, 100 μM dichloroisocoumarin (DCI), 10 μM E-64. The enzyme activity was determined as described in example 5.

recombinant TcAP2 = test: Effect of inhibitors on hydrolysis of bovine haemoglobin by recombinant TcAP2; assay type: biochemical, Theobroma cacao; conditions: 2 μM pepstatin; for Effect on endoprotease activity of recombinant TcAP2: pH 3, 2 mM 1.10 phenanthroline, 100 μM DCI, 10 μM E64
Protocol: Inhibitors were added in the reaction at final concentration of 2 mM for 1.10 phenanthroline, 100 μM DCI, 10 μM E64 and 2 μM pepstatin. Activity at pH 3 without inhibitor was taken as 100% and correspond to 28.8±3.8 pmoles L-leucine produced/min/mg protein. Data are means of 3 measurements±SD;
as §1
The pepstatin insensitive activity (1.91±1.26 pmoles L-leucine/min/mg protein, 6.65%) is in the same range as that one measured for the control strain (2.26±1.26 pmoles L-leucine/min/mg protein, 7.8%). Other inhibitors such as 1.10 phenanthroline (metallo proteases), DCI (serine proteases) and E64 (cysteine proteases) have no effect on TcAP2 activity (FIG. 12).

[2] = system: carboxypeptidase activity; conditions: cited from earlier work
[3] = system: aspartic endoproteinase activity; conditions: activity optimal at pH 3.5; cited from earlier work
bovine haemoglobin = test: Aspartic endoproteinase activity of recombinant TcAP2 in yeast culture supernatant; assay type: biochemical
Protocol: Small patches of cells were streaked on YPD agar plates and grown overnight at 28° C. The thin layers of grown cells were used to inoculate 50 ml DMI medium in 500 ml Erlenmeyers with 4 lateral baffles. DMI medium contains per liter: KH2PO4, 10 g; MgSO4,7H2O, 2.5 g; glucose, 20 g; Trace elements solution, 5.1 ml; Vitamins solution, 17 ml; urea, 3 g. Urea was dissolved in 15 ml water and sterile filtered. The initial pH of the medium was adjusted to 5.0. The cultures were shaken at 140 rpm on a rotary shaker at 28° C. for three days. Aliquots of the cultures were centrifuged at maximum speed (3000 g) for 15 min. and the supernatant used for the determination of the aspartic endoproteinase activity.
as §1

Row | Remaining Activity % [1] | Molecule | Effect on endoprotease activity of recombinant TcAP2 (recombinant TcAP2) | further results
1 | 88% | CC(C)C[C@H](NC(=O)[C@H]1O[C@@H]1C(=O)O)C(=O)NCCCCN=C(N)N [E-64] | no effect | –
2 | 0% | CC(C)CC(=O)N[C@H](C(=O)N[C@H](C(=O)N[C@@H](CC(C)C)[C@@H](O)CC(=O)N[C@@H](C)C(=O)N[C@@H](CC(C)C)[C@@H](O)CC(=O)O)C(C)C)C(C)C [Pepstatin A] (Isovaleryl-VV[Sta]A[Sta]-OH) | completely inhibited | Inhibition of the purified native protease activity ([1]; 2 μM pepstatin, pH 3): inhibits completely; Pepstatin insensitive activity (recombinant TcAP2; medium of pCY330-33, pH 3): 1.91±1.26 pmoles L-leucine/min/mg protein; Pepstatin insensitive activity, % of activity without inhibitor (recombinant TcAP2; activity at pH 3 without inhibitor taken as 100%): 6.65%; Inhibition of aspartic endoproteinase activity [3]: inhibited

The remaining lines, values behind:

Row | Molecule | Remaining Activity % [1] | Effect on endoprotease activity of recombinant TcAP2 (recombinant TcAP2) | further results
3 | c1cnc2c(c1)ccc1cccnc12 [1,10 Phenanthroline, 1,10 phenanthroline] | 86% | no effect | –
4 | O=c1oc(Cl)c(Cl)c2ccccc12 [DCI, dichloroisocoumarin] | 90% | no effect | –
5 | O=S(=O)(F)Cc1ccccc1 [PMSF] | – | – | Inhibition of carboxypeptidase activity [2]: inhibited
6 | TcAP2: aspartic endoproteinase from Theobroma cacao bean (clone CCN51), 514 amino acids; recombinant form secreted by Yarrowia lipolytica clone pCY330-33 (protein) MGTTIKVVVLSLFISSLLFSVVSSVSNDGLVRIGLKKMKLDPNNRLAARLDSKDGEALRAFIKKYRFRNNLGDSEETDIVALKNYMDAQYYGEIGIGTPTQKFTVIFDTGSSNLWVSSTKCYFSVACYFHEKYKASDSSTYKKDGKPASIQYGTGAISGFFSYDHVQVGDLVVKDQEFIEATKEPGLTFMVAKFDGILGLGFKEISVGDAVPVWYNMIKQGLIKEPVFSFWLNRNVDEEAGGEIVFGGVDPNHYKGKHTYVPVTQKGYWQFDMGDVLIADKPTGYCAGSCAAIADSGTSLLAGPSTVITMINHAIGATGVVSQECKAVVQQYGRTIIDLLIAEAQPQKICSQIGLCTFNGAHGVSTGIESVVDESNGKSSGVLRDAMCPACEMAVVWMQNQVRQNQTQDRILSYVNELCDRVPNPMGESAVDCGSLSSMPTISFTIGGKVFDLTPEEYILKVGEGSEAQCISGFTALDIPPPRGPLWILGDIFMGRYHTVFDFGKLRVGFAEAA | – | – | Activity at pH 3 without inhibitor (taken as 100%) (bovine haemoglobin; FIG. 12, means of 3 measurements±SD): 28.8±3.8 pmoles L-leucine produced/min/mg protein; Hydrolysis of bovine haemoglobin by supernatant from pCY330-33 (bovine haemoglobin; pH 3.0, 42° C., means of 3 measurements±SD (FIG. 10)): 25.8±1.45 pmoles L-leucine/min/mg protein; Activity at pH higher than 5 (bovine haemoglobin; pH higher than 5): slight activity

From patent US6790650B2, “Cacao endoproteinases and production of cocoa flavor from same” (Nestec S.A., priority 2000, dated 2004)
